Test results taken from article PMC11035592, “Intranasal oxytocin suppresses seizure-like behaviors in a mouse model of NGLY1 deficiency” (Communications Biology, 2024).

Experiments:
[1] = test system: patients with NGLY1 deficiency; conditions: cited from earlier work
Excerpt: For epileptic seizures in patients with NGLY1 deficiency, some approved drugs, including levetiracetam, valproate, lamotrigine, and clobazam, have been tested; however, their efficacies were limited.

[2] = Oxytocin levels in plasma, brain and spinal cord 5 min after intranasal oxytocin (enzyme immunoassay); assay type: in vivo, mouse; design: Oxytocin level, Thalamus, Mean / Oxytocin level, Hypothalamus, Mean / Oxytocin level, Cortex, Mean / Oxytocin level, Spinal cord, Mean / Oxytocin level, Striatum, Mean / Oxytocin level, Hippocampus, Mean: unit not given here; conditions: for Oxytocin level, Cortex, Mean / Oxytocin level, Hippocampus, Mean / Oxytocin level, Hypothalamus, Mean / Oxytocin level, Plasma, Mean / Oxytocin level, Spinal cord, Mean / Oxytocin level, Striatum, Mean / Oxytocin level, Thalamus, Mean: mean of n = 3; for Oxytocin level, Cortex, % of Control / Oxytocin level, Hippocampus, % of Control / Oxytocin level, Hypothalamus, % of Control / Oxytocin level, Spinal cord, % of Control / Oxytocin level, Striatum, % of Control / Oxytocin level, Thalamus, % of Control: mean, figure corresponds to % of the plasma 0 mg/kg mean; for Oxytocin level, Plasma, % of Control: mean as % of 0 mg/kg plasma mean
Method: Delivery of intranasal oxytocin to the central nervous system was confirmed using 17 to 18-week-old female Ngly1^−/− mice.
Fig. 5 Oxytocin levels in the plasma, brain, and spinal cord of Ngly1^−/− mice after intranasal administration of oxytocin. Oxytocin (10, 100 mg/kg) or saline was intranasally administered to female Ngly1^−/− mice (17 or 18-week-old) under anesthesia with 2.5% isoflurane (a). b Plasma, c hippocampus, d striatum, e cerebral cortex, f spinal cord, g thalamus, and h hypothalamus were collected 5 min after the single administration. Oxytocin levels were measured using enzyme immunoassay. Data represent mean + standard deviation and individual values (N = 3). […]
Oxytocin peptide (CAS number 50-56-6) was purchased from AA Blocks (San Diego, CA, USA) and dissolved in saline at a maximum concentration of 200 mg/mL. Female Ngly1^−/− mice were anesthetized with 2.5% isoflurane and intranasally administered with oxytocin using a manual pipette at a volume of 0.5 ml/kg. Oxytocin solutions were prepared in Protein LoBind Tubes (Eppendorf, Hamburg, Germany) just before the intranasal administration.

[3] = test system: generally healthy older men (55–95 years old); conditions: chronic intranasal administration, twice daily for four weeks; cited from earlier work
Excerpt: (§1) The safety of single or chronic intranasal oxytocin administration has been investigated in several clinical studies. […] Based on these clinical studies, oxytocin has the potential to be administered to patients with NG ...

[4] = test system: school-age children (8–12 years old); conditions: 90 min and 24 h after a single intranasal administration; cited from earlier work
Excerpt: as §1

[5] = female Ngly1−/− mice, 17 to 18-week-old, 10 or 100 mg/kg single intranasal, 5 min after administration, enzyme immunoassay, N = 3, vs saline

CC[C@@H](C(N)=O)N1CCCC1=O [levetiracetam]
efficacy for epileptic seizures [1]: limited

Nc1nnc(-c2cccc(Cl)c2Cl)c(N)n1 [lamotrigine]
efficacy for epileptic seizures [1]: limited

CCCC(CCC)C(=O)O [valproate]
efficacy for epileptic seizures [1]: limited

CC[C@H](C)[C@@H]1NC(=O)[C@H](Cc2ccc(O)cc2)NC(=O)[C@@H](N)CSSC[C@@H](C(=O)N2CCC[C@H]2C(=O)N[C@@H](CC(C)C)C(=O)NCC(N)=O)NC(=O)[C@H](CC(N)=O)NC(=O)[C@H](CCC(N)=O)NC1=O [oxytocin, Oxytocin]
Oxytocin level, Cortex, Mean ([2]; 10 mg/kg intranasal): 2.20
Oxytocin level, Cortex, % of Control ([2]; 10 mg/kg intranasal): 0.776%
Oxytocin level, Cortex, Mean ([2]; 100 mg/kg intranasal): 15.07
Oxytocin level, Cortex, % of Control ([2]; 100 mg/kg intranasal): 5.31%
Oxytocin level, Hippocampus, Mean ([2]; 10 mg/kg intranasal): 8.47
Oxytocin level, Hippocampus, % of Control ([2]; 10 mg/kg intranasal): 3%
Oxytocin level, Hippocampus, Mean ([2]; 100 mg/kg intranasal): 23.47
Oxytocin level, Hippocampus, % of Control ([2]; 100 mg/kg intranasal): 8%
Oxytocin level, Hypothalamus, Mean ([2]; 10 mg/kg intranasal): 87.40
Oxytocin level, Hypothalamus, % of Control ([2]; 10 mg/kg intranasal): 31%
Oxytocin level, Hypothalamus, Mean ([2]; 100 mg/kg intranasal): 132.73
Oxytocin level, Hypothalamus, % of Control ([2]; 100 mg/kg intranasal): 47%
Oxytocin level, Plasma, % of Control ([2]; 10 mg/kg intranasal): 4479%
Oxytocin level, Plasma, Mean ([2]; 10 mg/kg intranasal): 12705.67
Oxytocin level, Plasma, % of Control ([2]; 100 mg/kg intranasal): 26235%
Oxytocin level, Plasma, Mean ([2]; 100 mg/kg intranasal): 74420.67
Oxytocin level, Spinal cord, Mean ([2]; 10 mg/kg intranasal): 2.17
Oxytocin level, Spinal cord, % of Control ([2]; 10 mg/kg intranasal): 0.764%
Oxytocin level, Spinal cord, Mean ([2]; 100 mg/kg intranasal): 4.10
Oxytocin level, Spinal cord, % of Control ([2]; 100 mg/kg intranasal): 1.45%
Oxytocin level, Striatum, Mean ([2]; 10 mg/kg intranasal): 2.60
Oxytocin level, Striatum, % of Control ([2]; 10 mg/kg intranasal): 0.917%
Oxytocin level, Striatum, Mean ([2]; 100 mg/kg intranasal): 24.23
Oxytocin level, Striatum, % of Control ([2]; 100 mg/kg intranasal): 8.54%
Oxytocin level, Thalamus, Mean ([2]; 10 mg/kg intranasal): 3.40
Oxytocin level, Thalamus, % of Control ([2]; 10 mg/kg intranasal): 1.2%
Oxytocin level, Thalamus, Mean ([2]; 100 mg/kg intranasal): 42.47
Oxytocin level, Thalamus, % of Control ([2]; 100 mg/kg intranasal): 15%
increasing trend of oxytocin level in hypothalamus [2, 5]: not observed
oxytocin level in cerebral cortex [2, 5]: increased
oxytocin level in hippocampus [2, 5]: increased
oxytocin level in plasma [2, 5]: increased
oxytocin level in spinal cord [2, 5]: increased
oxytocin level in striatum [2, 5]: increased
oxytocin level in thalamus [2, 5]: increasing trend
tolerability [3]: well-tolerated
side-effects [4]: no side-effect

CN1C(=O)CC(=O)N(c2ccccc2)c2cc(Cl)ccc21 [clobazam]
efficacy for epileptic seizures [1]: limited
